The values below come from PubChem BioAssay (NCI).

Common to all, as to experiment: inhibition of tumour cell growth, NCI panel, 48 h
In test [1] the test system is SF-539 CNS.
Test [2] has as its system OVCAR-8 ovarian.
In test [3] the test system is SK-OV-3 ovarian.
The subject of test [4] is HS 578T breast.
The subject of test [5] is DU-145 prostate.
For test [6], the system named is SK-MEL-28 melanoma.
The test system of test [7] is RPMI-8226 leukemia.
Test [8] concerns U251 CNS.
The test system of test [9] is MCF7 breast.
Test [10] deals with LOX IMVI melanoma.
Test [11] has as its system TK-10 renal.
For test [12], the system named is HCC-2998 colon.
Test [13] deals with OVCAR-4 ovarian.
The subject of test [14] is OVCAR-5 ovarian.
Test [15] has as its system HCT-116 colon.
The test system of test [16] is KM12 colon.
The subject of test [17] is MALME-3M melanoma.
The test system of test [18] is NCI-H522 lung.
For test [19], the system named is BT-549 breast.

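Cultured in 96-well plates, cells were exposed to test compound for 48 hours across five concentrations. TGI is the concentration that stops growth completely.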 Bounds are passed on as bounds.

`COC1CCC(=O)N1CN(C(C)=O)c1ccc(C)cc1` (stereo not given): the TGI in [1], in test [2], in test [3], in test [4], in test [5] and in test [6] was > 100 µM throughout. Further, the TGI in [7], in test [8], in test [9], in test [10], in test [11] and in [12] was > 100 µM each time. In addition, the TGI in test [13], in test [14], in test [15] and in test [16] was > 100 µM each time.
As to `CCC(O)c1ccc(N=Cc2ccccc2O)cc1` (stereo not given), the TGI in [1], in test [3], in test [17], in [5], in test [6] and in [7] was > 100 µM throughout. Further, the TGI in [8], in test [9], in test [10], in test [11], in test [12] and in test [13] was > 100 µM each time. The TGI in [14], in test [18], in test [19], in test [15] and in test [16] was > 100 µM in each case.
For `CC1(C)CC(=O)c2c(nc3c(ccc4ccccc43)c2-c2ccc(NC(=O)CCCCC(=O)Nc3ccc(-c4c5c(nc6c4ccc4ccccc46)CC(C)(C)CC5=O)cc3)cc2)C1`, the TGI in test [1] was 46.6 µM; in test [2] it was 98.4 µM; in [3] it was > 100 µM; in [4], > 100 µM; in test [5], > 100 µM; in [6] it was > 100 µM. Besides, the TGI is 71.4 µM in test [7]; > 100 µM in [8]; > 100 µM in test [9]; 33.3 µM in test [10]; > 100 µM in test [11]; > 100 µM in test [14]. Moreover, the TGI was > 100 µM in [18], 74.6 µM in test [15] and 42.2 µM in test [16].
As to `COc1ccc2nc3n(c2c1)C(=O)c1ccccc1-3`, the TGI in [1], in test [2], in [3], in test [17], in [5] and in [6] was > 100 µM throughout. In addition, the TGI in [7], in test [8], in test [9], in [11], in test [12] and in test [13] was > 100 µM each time. In addition, the TGI in test [14], in [18], in test [15] and in [16] was > 100 µM throughout.
With `CC(=O)C(=[N+]=[N-])C(=O)N(C)CCC#N`, the TGI in test [1], in test [2], in test [3], in test [17], in test [5] and in test [6] was > 10 µM each time. Also, the TGI in test [7], in [8], in test [9], in test [10], in test [11] and in [14] was > 10 µM throughout. The TGI in [19], in [15] and in test [16] was > 10 µM each time.
For `CC1C2=C(CCCC2=O)N(c2ccc(Cl)cc2)C2=C1C(=O)CCC2`, the TGI in test [1], in test [2], in test [3], in test [4], in [6] and in [7] was > 100 µM each time. In addition, the TGI in test [8], in test [9], in [10], in [11], in [12] and in [13] was > 100 µM in each case. Also, the TGI in test [14], in [19] and in test [16] was > 100 µM each time.
With `COc1ccccc1NCc1cccc2c(=O)c3ccc(Cl)cc3oc12`, the TGI in [1], in test [2], in test [3], in test [17], in test [6] and in [7] was > 100 µM throughout. Also, the TGI in test [8], in [9], in [10], in [11], in [12] and in test [13] was > 100 µM in each case. Further, the TGI in [14], in [18], in [19], in test [15] and in [16] was > 100 µM throughout.
With `CCn1c(=O)c2nc(SC)sc2n(-c2ccccc2)c1=O`, the TGI in [1], in test [2], in test [3], in test [17], in test [5] and in test [6] was > 100 µM each time. Besides, the TGI in test [7], in test [8], in test [9], in [10], in test [11] and in [12] was > 100 µM throughout. Also, the TGI in test [13], in [14], in test [18], in test [15] and in test [16] was > 100 µM throughout.
Regarding `COc1ccc2[nH]c3c(C)cc([N+](=O)[O-])c(C)c3c2c1`, the TGI was > 100 µM in test [1]; 79.9 µM in [2]; 78.3 µM in test [3]; 73.4 µM in [17]; 92.2 µM in [6]; 62.7 µM in test [7]. Besides, the TGI in test [8] is 97.8 µM; in [11], 76.5 µM; in test [12], 67.7 µM; in test [13], > 100 µM; in test [18], 43 µM; in test [15], 58.7 µM. The TGI in [16] was 45.4 µM.
For the compound `Cc1ccc(NC(=O)/C(=N/N(C)C)C(C2OC(=O)c3ccccc32)[N+](=O)[O-])cc1` (stereo not given), the TGI in [1], in [2], in test [3], in test [4], in test [6] and in test [7] was > 100 µM throughout. Also, the TGI in [8], in test [9], in test [10], in test [11], in test [12] and in test [13] was > 100 µM in each case. Further, the TGI in [14], in [19], in test [15] and in test [16] was > 100 µM in each case.
With `CN(C)c1cccc2c1C(=O)C=CC21CCc2ccc(N(C)C)c3c(N(C)C)ccc1c23` (stereo not given), the TGI in test [1] stood at 35.4 µM; in [2] it was 53.2 µM; in test [3], 27 µM; in test [4] it was 66.8 µM; in [17], 24.4 µM; in test [5] it was 17.5 µM. Besides, the TGI in [6] is 30.4 µM; in test [7] it was 58.6 µM; in [9], 27.3 µM; in [10] it was 31.9 µM; in test [11], 28.1 µM; in test [13] it was 83.4 µM. Further, the TGI in [14] was 49.6 µM; in test [15] it was 22.9 µM; in [16], 30.2 µM.
`COc1nc2c(c(=O)n1C)N=C(c1ccc(Cl)cc1)CC(c1ccccc1)N2` (stereo not given): the TGI was 31.5 µM in test [1]; > 100 µM in test [2]; > 100 µM in test [3]; > 100 µM in [5]; > 100 µM in test [6]; 54 µM in [7]. Also, the TGI is > 100 µM in test [8]; 28.8 µM in test [9]; 52.2 µM in [10]; 35.8 µM in [12]; 48.5 µM in [13]; 78.7 µM in test [14]. In addition, the TGI in test [18] came out at 44.9 µM; in test [19], 67.5 µM; in [15], 63.5 µM; in [16], 33.8 µM.
Turning to `COc1cc2c(cc1C1=NC(C)(C)CO1)OCO2`, the TGI in [1], in test [2], in [3], in [17], in test [6] and in test [7] was > 100 µM each time. Further, the TGI in test [8], in test [11], in test [13], in [18], in test [15] and in [16] was > 100 µM in each case.
With `CCCC1(CCC)c2cc(/C=N\O)ccc2-c2ccc(-c3ccc(C(C)(C)C)cc3)cc21`, the TGI in test [1], in test [2], in test [3], in test [4], in test [17] and in test [5] was > 100 µM in each case. Further, the TGI in test [6] was 92.6 µM; in test [7], > 100 µM; in test [9], > 100 µM; in test [10], > 100 µM; in test [11] it was > 100 µM; in test [12], > 100 µM. Also, the TGI in test [13] was > 100 µM; in test [14] it was > 100 µM; in test [15], 54.8 µM; in test [16], > 100 µM.
As for `CCn1c2ccccc2c2ccc(C3C(C(=O)OC)=C(C)NC(C)=C3C(=O)OC)cc21`, the TGI is > 100 µM in [1]; > 100 µM in [2]; > 100 µM in [3]; 60.1 µM in [17]; > 100 µM in [5]; > 100 µM in test [6]. Besides, the TGI was 80.8 µM in test [7]; > 100 µM in [8]; > 100 µM in [9]; > 100 µM in test [10]; > 100 µM in test [11]; > 100 µM in test [12]. Further, the TGI in test [13], in test [14], in test [19], in [15] and in test [16] was > 100 µM each time.
As for `O=C1CSC2=NC3=C(CSC/C3=C\c3ccccc3)C(c3ccccc3)N12` (stereo not given), the TGI in [1], in [2], in [3], in test [4], in [17] and in test [5] was > 100 µM in each case. The TGI in test [6], in test [7], in [8], in [9], in test [10] and in test [11] was > 100 µM each time. Further, the TGI in test [12], in test [13], in [14], in test [15] and in test [16] was > 100 µM in each case.
Regarding `O=C(Nc1nnc(-c2c(Cl)c(Cl)c(Cl)c(Cl)c2-c2nc3cc(C(=O)c4ccccc4)ccc3[nH]2)o1)c1ccc(Cl)cc1`, the TGI in test [1], in [2], in [3], in [5], in test [6] and in [7] was > 100 µM throughout. Besides, the TGI in test [8], in test [9], in test [10], in test [11], in test [13] and in test [14] was > 100 µM throughout. Besides, the TGI in test [19], in test [15] and in [16] was > 100 µM each time.
